From patent US11667667B2, “Steroid derivative FXR agonist” (Chia Tai Tianqing Pharmaceutical Group Co., Ltd., priority 2016, dated 2023) come the findings set out here.

The assay concerns the target T1, Glutathione-S-transferase-labeled FXR human protein (Homo sapiens, UniProt Q96RI1).
T1 construct: purchased Invitrogen
T1 sequence (Q96RI1 1-486): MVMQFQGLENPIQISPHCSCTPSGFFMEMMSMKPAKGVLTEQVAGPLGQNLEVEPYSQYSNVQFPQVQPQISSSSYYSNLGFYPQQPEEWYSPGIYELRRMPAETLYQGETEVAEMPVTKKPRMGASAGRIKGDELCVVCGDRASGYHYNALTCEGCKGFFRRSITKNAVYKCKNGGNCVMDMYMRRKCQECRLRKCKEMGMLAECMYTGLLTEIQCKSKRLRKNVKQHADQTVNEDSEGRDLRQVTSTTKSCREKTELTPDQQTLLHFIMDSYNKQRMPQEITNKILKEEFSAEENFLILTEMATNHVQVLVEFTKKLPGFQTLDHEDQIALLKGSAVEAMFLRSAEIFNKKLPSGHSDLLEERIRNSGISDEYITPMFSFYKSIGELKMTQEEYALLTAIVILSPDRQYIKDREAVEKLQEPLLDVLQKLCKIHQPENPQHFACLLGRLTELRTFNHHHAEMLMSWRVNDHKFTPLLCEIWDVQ
Kind of assay: FXR biochemical experiment (AlphaScreen, coactivator recruitment). Conditions: for EC50: AlphaScreen, GST-FXR human protein + biotin-labeled steroid receptor coactivator, read-out: FXR enzyme activity EC50; for Emax: ratio of highest signal of the compound to that of the reference compound, read-out: FXR enzyme activity Efficacy. The method, then:
FXR Biochemical Experiment Experimental Purpose: The activation effect of the compound on FXR binding reaction was detected by AlphaScreen. […] Protein: Glutathione-S-transferase-labeled FXR human protein (Invitrogen) 2. Co-activator: Biotin-labeled steroid receptor coactivator (Anaspec) 3. […] Compound Dilution: The compound to be tested was prepared as a 40 μM DMSO solution, and then diluted 3-fold to 10 concentration points. The reference compound was prepared as a 400 μM DMSO solution, and then diluted 1.5-fold to 10 concentration points. The diluted DMSO solution was added to the wells of a 384-well plate in a volume of 150 nL per well. 2. […] 4. […] The operation during the experimental process was protected from light. The incubation was performed for 1 hour at room temperature. 5. […] The operation during the experimental process was protected from light. The incubation was performed for 1 hour at room temperature. 6. EC50 test: Envision was used with excitation at 680 nm to read the […] signals at 520-620 nm. 7. Analytical data: The data were analyzed via using Prism 5.0, and the EC50 values of the activation effects of the compounds were calculated.
(In general: Bead proximity is the source of the signal in Alpha formats.)

The EC50 is the concentration needed to bring the measured effect to its halfway point. Turning to `CC[C@H]1[C@@H](O)[C@@H]2[C@H](CC[C@]3(C)[C@@H]([C@H](C)CCN4CCC[C@@H]4C(=O)O)CC[C@@H]23)[C@@]2(C)CC[C@@H](O)C[C@@H]12` [Example 2], the EC50 was determined as 1.46 µM and the Emax was 114%. For `CC[C@H]1[C@@H](O)[C@@H]2[C@H](CC[C@]3(C)[C@@H]([C@H](C)CCN4CCC[C@H]4C(=O)O)CC[C@@H]23)[C@@]2(C)CC[C@@H](O)C[C@@H]12` [Example 3], the EC50 amounted to 2.62 µM and the Emax was determined as 106%. For `CC[C@H]1[C@@H](O)[C@@H]2[C@H](CC[C@]3(C)[C@@H]([C@H](C)CCOc4ccccc4C(=O)O)CC[C@@H]23)[C@@]2(C)CC[C@@H](O)C[C@@H]12` [Example 8], the Emax came out at 264%. Take `CC[C@H]1[C@@H](O)[C@@H]2[C@H](CC[C@]3(C)[C@@H]([C@H](C)CCOc4cnc(C(=O)O)nc4)CC[C@@H]23)[C@@]2(C)CC[C@@H](O)C[C@@H]12` [Example 12]: the EC50 turned out to be 0.07 µM and the Emax was determined as 240%. For `CC[C@H]1[C@@H](O)[C@@H]2[C@H](CC[C@]3(C)[C@@H]([C@H](C)CCOc4cnccc4C(=O)O)CC[C@@H]23)[C@@]2(C)CC[C@@H](O)C[C@@H]12` [Example 13], the EC50 stood at 0.39 µM and the Emax came to 270%.

As to `CC[C@H]1[C@@H](OC)[C@@H]2[C@H](CC[C@]3(C)[C@@H]([C@H](C)CCOCC45CC(C(=O)O)(C4)C5)CC[C@@H]23)[C@@]2(C)CC[C@@H](O)C[C@@H]12` [Example 14], the EC50 stood at 0.73 µM and the Emax turned out to be 195%. In the case of `CC[C@H]1[C@@H](O)[C@@H]2[C@H](CC[C@]3(C)[C@@H]([C@H](C)CCOc4cccnc4C(=O)O)CC[C@@H]23)[C@@]2(C)CC[C@@H](O)C[C@@H]12` [Example 16], the EC50 is 0.31 µM and the Emax was 247%. For `CC[C@H]1[C@@H](O)[C@@H]2[C@H](CC[C@]3(C)[C@@H]([C@H](C)CCCOc4ccc(C(=O)O)cn4)CC[C@@H]23)[C@@]2(C)CC[C@@H](O)C[C@@H]12` [Example 18], the EC50 was 0.07 µM and the Emax amounted to 187%. In the case of `CC[C@H]1[C@@H](O)[C@@H]2[C@H](CC[C@]3(C)[C@@H]([C@H](C)/C=C/c4cccc(C(=O)O)c4)CC[C@@H]23)[C@@]2(C)CC[C@@H](O)C[C@@H]12` [Example 20], the half-maximal effective concentration (EC50) was determined as 0.06 µM and the Emax came out at 287%. For `CC[C@H]1[C@@H](O)[C@@H]2[C@H](CC[C@]3(C)[C@@H]([C@H](C)CCOc4ncc(C(=O)O)cc4F)CC[C@@H]23)[C@@]2(C)CC[C@@H](O)C[C@@H]12` [Example 24], the Emax came out at 138%. As for `CC[C@H]1[C@@H](O)[C@@H]2[C@H](CC[C@]3(C)[C@@H]([C@H](C)CCOc4cccc(C(=O)O)n4)CC[C@@H]23)[C@@]2(C)CC[C@@H](O)C[C@@H]12` [Example 25], the EC50 turned out to be 0.011 µM and the Emax was 233%. The corresponding values for `CC[C@H]1[C@@H](O)[C@@H]2[C@H](CC[C@]3(C)[C@@H]([C@H](C)CCOc4ccc(C(=O)NS(C)(=O)=O)cn4)CC[C@@H]23)[C@@]2(C)CC[C@@H](O)C[C@@H]12` [Example 27] are 0.006 µM and 212%.

As for `CC[C@H]1[C@@H](O)[C@@H]2[C@H](CC[C@]3(C)[C@@H]([C@H](C)CCOc4ccc(C(=O)NS(=O)(=O)C5CC5)cn4)CC[C@@H]23)[C@@]2(C)CC[C@@H](O)C[C@@H]12` [Example 28], the EC50 came out at 0.007 µM and the Emax was found to be 219%.

As for `CC[C@H]1[C@@H](O)[C@@H]2[C@H](CC[C@]3(C)[C@@H]([C@H](C)CCOc4ccc(C(=O)NS(=O)(=O)C(C)(C)C)cn4)CC[C@@H]23)[C@@]2(C)CC[C@@H](O)C[C@@H]12` [Example 29], the EC50 is 0.012 µM and the Emax was 190%. Consider `CC[C@H]1[C@@H](O)[C@@H]2[C@H](CC[C@]3(C)[C@@H]([C@H](C)CCOc4ccc(C(=O)NS(=O)(=O)C(C)C)cn4)CC[C@@H]23)[C@@]2(C)CC[C@@H](O)C[C@@H]12` [Example 30], for which the EC50 came out at 0.056 µM and the Emax was 150%.

As for `CC[C@H]1[C@@H](O)[C@@H]2[C@H](CC[C@]3(C)[C@@H]([C@H](C)CCOc4ccc(C(=O)NS(=O)(=O)c5ccccc5)cn4)CC[C@@H]23)[C@@]2(C)CC[C@@H](O)C[C@@H]12` [Example 31], the EC50 stood at 0.027 µM and the Emax stood at 204%. The corresponding values for `CC[C@H]1[C@@H](O)[C@@H]2[C@H](CC[C@]3(C)[C@@H]([C@H](C)CCOc4ccc(C(=O)Nc5ccccc5)cn4)CC[C@@H]23)[C@@]2(C)CC[C@@H](O)C[C@@H]12` [Example 32] are 0.65 µM and 140%. `CC[C@H]1[C@@H](O)[C@@H]2[C@H](CC[C@]3(C)[C@@H]([C@H](C)CCOc4ccc(C(=O)NC)cn4)CC[C@@H]23)[C@@]2(C)CC[C@@H](O)C[C@@H]12` [Example 33]: the EC50 is 0.141 µM and the Emax is 194%. Turning to `CC[C@H]1[C@@H](O)[C@@H]2[C@H](CC[C@]3(C)[C@@H]([C@H](C)CCOc4ccc(C(=O)NC5CC5)cn4)CC[C@@H]23)[C@@]2(C)CC[C@@H](O)C[C@@H]12` [Example 34], the EC50 was found to be 0.093 µM and the Emax came out at 191%. Take `CC[C@H]1[C@@H](O)[C@@H]2[C@H](CC[C@]3(C)[C@@H]([C@H](C)CCOc4ccc(C(=O)NCCS(=O)(=O)O)cn4)CC[C@@H]23)[C@@]2(C)CC[C@@H](O)C[C@@H]12` [Example 38]: the EC50 is 0.02 µM and the Emax was 210%. The corresponding values for `CC[C@H]1[C@@H](O)[C@@H]2[C@H](CC[C@]3(C)[C@@H]([C@H](C)CCOc4ccc(C(=O)NCC(=O)O)cn4)CC[C@@H]23)[C@@]2(C)CC[C@@H](O)C[C@@H]12` [Example 39] are 0.02 µM and 205%. For `CC[C@H]1[C@@H](O)[C@@H]2[C@H](CC[C@]3(C)[C@@H]([C@H](C)CCCOc4ncc(C(=O)O)cc4Cl)CC[C@@H]23)[C@@]2(C)CC[C@@H](O)C[C@@H]12` [Example 40], the EC50 amounted to 0.045 µM and the Emax stood at 197%. The corresponding values for `CC[C@H]1[C@@H](O)[C@@H]2[C@H](CC[C@]3(C)[C@@H]([C@H](C)CCOc4ccnc(C(=O)O)c4)CC[C@@H]23)[C@@]2(C)CC[C@@H](O)C[C@@H]12` [Example 41] are 0.08 µM and 127%. With `CC[C@H]1[C@@H](O)[C@@H]2[C@H](CC[C@]3(C)[C@@H]([C@H](C)CC(=O)Nc4cncc(C(=O)O)c4)CC[C@@H]23)[C@@]2(C)CC[C@@H](O)C[C@@H]12` [Example 42], the EC50 was determined as 1.43 µM and the Emax was 121%. As for `CC[C@H]1[C@@H](O)[C@@H]2[C@H](CC[C@]3(C)[C@@H]([C@H](C)CCNc4cncc(C(=O)O)c4)CC[C@@H]23)[C@@]2(C)CC[C@@H](O)C[C@@H]12` [Example 43], the EC50 was 0.37 µM and the Emax was found to be 193%. With `CC[C@H]1[C@@H](O)[C@@H]2[C@H](CC[C@]3(C)[C@@H]([C@H](C)CCOc4ccc(C(=O)OC)cn4)CC[C@@H]23)[C@@]2(C)CC[C@@H](O)C[C@@H]12` [Example 44], the EC50 stood at 0.33 µM and the Emax turned out to be 140%.
